Paper PMC8449129, “Single tracer-based protocol for broad-spectrum kinase profiling in live cells with NanoBRET” (STAR Protocols, 2021)

How the values were obtained:
Test in all cases: cell-based
Design in all cases: NanoBRET live-cell target engagement; % occupancy from displacement of tracer K10 on NanoLuc-kinase fusions, mean n=3
Conditions in all cases: HEK293, read-out: % inhibition
PHKG1 = PHKG1 (Homo sapiens, UniProt Q16816)
How it was run: (§1)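 Live-cell NanoBRET target engagement: cells expressing kinase–NanoLuc fusion with tracer treated with compound 2 h at 37 °C, 5% CO2. BRET read from donor (450 nm) and acceptor (610/630 nm) emission with 20 μM extracellular NanoLuc inhibitor; % occupancy calculated relative to tracer+DMSO and zero-BRET controls.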

BRAF(V600E) = BRAF(V600E) (Homo sapiens, UniProt P15056, V600E)
How it was run: as §1

MAP3K4 = MAP3K4 (Homo sapiens, UniProt Q9Y6R4)
How it was run: as §1

FYN = FYN (Homo sapiens, UniProt P06241)
How it was run: as §1

PAK6 = PAK6 (Homo sapiens, UniProt Q9NQU5)
Chain of PAK6 (Q9NQU5 whole entry): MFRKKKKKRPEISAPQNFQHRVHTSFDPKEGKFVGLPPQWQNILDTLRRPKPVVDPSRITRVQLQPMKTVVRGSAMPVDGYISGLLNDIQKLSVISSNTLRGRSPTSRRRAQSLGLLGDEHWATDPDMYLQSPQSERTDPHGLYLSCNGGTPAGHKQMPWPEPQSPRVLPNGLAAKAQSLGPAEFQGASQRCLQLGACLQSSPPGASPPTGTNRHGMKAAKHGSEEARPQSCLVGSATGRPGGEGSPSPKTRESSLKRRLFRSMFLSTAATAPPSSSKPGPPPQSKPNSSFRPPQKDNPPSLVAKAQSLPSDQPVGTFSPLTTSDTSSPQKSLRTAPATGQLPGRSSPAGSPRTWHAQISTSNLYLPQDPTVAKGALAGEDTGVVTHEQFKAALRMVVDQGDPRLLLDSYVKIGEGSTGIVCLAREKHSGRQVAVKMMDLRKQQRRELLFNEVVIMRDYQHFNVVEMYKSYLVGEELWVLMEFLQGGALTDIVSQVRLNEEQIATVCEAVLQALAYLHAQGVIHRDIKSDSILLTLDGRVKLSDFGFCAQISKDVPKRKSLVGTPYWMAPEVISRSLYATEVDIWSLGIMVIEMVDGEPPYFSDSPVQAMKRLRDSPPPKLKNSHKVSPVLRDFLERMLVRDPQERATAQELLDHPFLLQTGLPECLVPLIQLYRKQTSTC
How it was run: as §1

CDK17 = CDK17 (Homo sapiens, UniProt Q00537)
How it was run: as §1

PRKACB = PRKACB (Homo sapiens, UniProt P22694)
How it was run: as §1

MLTK = molecular target: T1, MLTK (Homo sapiens, UniProt Q9NYL2)
T1 construct: gene MAP3K20
T1 sequence (Q9NYL2 whole entry): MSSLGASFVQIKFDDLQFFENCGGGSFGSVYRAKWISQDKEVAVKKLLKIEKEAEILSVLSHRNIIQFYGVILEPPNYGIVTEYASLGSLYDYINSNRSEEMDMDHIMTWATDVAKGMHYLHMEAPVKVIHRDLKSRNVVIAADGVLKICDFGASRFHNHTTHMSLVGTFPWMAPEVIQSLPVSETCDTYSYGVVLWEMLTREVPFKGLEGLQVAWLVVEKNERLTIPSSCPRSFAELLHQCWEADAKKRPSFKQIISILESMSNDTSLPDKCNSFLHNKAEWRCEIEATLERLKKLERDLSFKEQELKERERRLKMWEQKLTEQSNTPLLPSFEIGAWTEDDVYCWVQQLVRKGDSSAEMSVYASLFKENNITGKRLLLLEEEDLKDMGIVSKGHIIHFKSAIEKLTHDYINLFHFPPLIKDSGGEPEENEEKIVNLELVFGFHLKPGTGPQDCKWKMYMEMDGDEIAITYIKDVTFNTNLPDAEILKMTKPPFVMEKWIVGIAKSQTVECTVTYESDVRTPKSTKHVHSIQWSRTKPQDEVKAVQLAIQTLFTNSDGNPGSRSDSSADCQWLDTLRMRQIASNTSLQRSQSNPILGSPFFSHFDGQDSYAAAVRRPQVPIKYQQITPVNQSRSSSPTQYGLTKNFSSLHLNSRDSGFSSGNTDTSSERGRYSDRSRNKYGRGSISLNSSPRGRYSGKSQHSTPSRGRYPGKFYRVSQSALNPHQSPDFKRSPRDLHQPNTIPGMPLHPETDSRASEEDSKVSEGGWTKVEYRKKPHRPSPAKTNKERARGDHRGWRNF
How it was run: as §1

AKT2 = AKT2 (Homo sapiens, UniProt P31751)
How it was run: as §1

STK17B = STK17B (Homo sapiens, UniProt O94768)
Chain of STK17B (O94768 whole entry): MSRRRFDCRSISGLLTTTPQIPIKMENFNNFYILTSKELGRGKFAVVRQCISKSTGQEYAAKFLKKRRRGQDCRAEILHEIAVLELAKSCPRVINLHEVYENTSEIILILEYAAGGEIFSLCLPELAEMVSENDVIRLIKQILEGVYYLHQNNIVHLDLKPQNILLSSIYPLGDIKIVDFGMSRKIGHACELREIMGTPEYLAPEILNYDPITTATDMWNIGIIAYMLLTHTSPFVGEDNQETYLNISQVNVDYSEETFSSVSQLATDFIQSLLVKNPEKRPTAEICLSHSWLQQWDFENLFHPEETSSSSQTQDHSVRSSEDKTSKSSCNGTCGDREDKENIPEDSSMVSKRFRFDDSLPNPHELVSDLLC
How it was run: as §1

STK36 = STK36 (Homo sapiens, UniProt Q9NRP7)
Chain of STK36 (Q9NRP7 whole entry): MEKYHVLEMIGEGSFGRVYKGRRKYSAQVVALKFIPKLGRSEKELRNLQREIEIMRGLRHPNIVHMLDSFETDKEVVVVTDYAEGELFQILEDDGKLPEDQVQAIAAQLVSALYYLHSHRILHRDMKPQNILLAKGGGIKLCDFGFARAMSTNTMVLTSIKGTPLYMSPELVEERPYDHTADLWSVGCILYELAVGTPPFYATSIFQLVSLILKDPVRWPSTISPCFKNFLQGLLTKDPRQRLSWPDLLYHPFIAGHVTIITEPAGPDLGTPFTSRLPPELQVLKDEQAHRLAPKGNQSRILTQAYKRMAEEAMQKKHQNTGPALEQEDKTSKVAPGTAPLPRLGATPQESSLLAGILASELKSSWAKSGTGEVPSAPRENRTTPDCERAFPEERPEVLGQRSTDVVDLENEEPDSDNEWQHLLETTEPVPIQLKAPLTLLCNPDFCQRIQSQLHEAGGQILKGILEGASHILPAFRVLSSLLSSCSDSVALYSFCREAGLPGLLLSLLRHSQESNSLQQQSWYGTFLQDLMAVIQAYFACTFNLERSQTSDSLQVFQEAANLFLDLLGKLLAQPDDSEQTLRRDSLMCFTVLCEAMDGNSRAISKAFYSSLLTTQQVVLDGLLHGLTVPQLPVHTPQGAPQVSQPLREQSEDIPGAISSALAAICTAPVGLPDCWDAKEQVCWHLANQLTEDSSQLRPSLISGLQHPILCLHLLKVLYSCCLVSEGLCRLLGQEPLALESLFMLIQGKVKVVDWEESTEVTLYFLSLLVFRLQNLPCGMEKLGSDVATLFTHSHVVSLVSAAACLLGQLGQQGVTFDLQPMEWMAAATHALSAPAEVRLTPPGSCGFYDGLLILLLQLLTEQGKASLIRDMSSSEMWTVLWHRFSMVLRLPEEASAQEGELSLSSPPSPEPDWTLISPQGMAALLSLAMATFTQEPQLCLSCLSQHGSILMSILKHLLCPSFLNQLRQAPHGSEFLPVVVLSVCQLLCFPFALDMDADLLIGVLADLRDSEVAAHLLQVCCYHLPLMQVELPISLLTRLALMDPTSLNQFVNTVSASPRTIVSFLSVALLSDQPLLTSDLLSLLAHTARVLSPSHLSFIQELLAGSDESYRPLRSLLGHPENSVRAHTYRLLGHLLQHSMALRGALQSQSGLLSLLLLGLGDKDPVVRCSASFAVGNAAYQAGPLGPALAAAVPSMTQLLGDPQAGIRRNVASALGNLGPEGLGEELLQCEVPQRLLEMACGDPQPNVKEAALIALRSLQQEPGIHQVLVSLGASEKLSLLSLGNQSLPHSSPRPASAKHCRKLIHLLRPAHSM
How it was run: as §1

TEC = TEC (Homo sapiens, UniProt P42680)
Chain of TEC (P42680 whole entry): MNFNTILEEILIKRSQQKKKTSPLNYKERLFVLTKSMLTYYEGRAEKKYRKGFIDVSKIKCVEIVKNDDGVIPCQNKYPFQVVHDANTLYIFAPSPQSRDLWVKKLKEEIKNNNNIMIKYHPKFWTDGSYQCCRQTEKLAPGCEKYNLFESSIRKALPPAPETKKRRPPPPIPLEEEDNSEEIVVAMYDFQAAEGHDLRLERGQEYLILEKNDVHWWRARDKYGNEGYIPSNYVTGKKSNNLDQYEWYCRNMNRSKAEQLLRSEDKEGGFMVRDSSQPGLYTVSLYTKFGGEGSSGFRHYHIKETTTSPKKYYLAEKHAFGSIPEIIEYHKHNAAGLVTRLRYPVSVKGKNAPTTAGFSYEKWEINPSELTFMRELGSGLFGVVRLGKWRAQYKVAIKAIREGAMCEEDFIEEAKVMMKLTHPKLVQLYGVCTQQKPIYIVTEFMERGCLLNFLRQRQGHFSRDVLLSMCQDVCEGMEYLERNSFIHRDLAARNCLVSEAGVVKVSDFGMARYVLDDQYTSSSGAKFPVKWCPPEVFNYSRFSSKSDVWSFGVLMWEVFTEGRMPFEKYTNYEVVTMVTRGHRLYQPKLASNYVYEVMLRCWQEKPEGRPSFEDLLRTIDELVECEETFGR
How it was run: as §1

AAK1 = AAK1 (Homo sapiens, UniProt Q2M2I8)
How it was run: as §1

PAK4 = PAK4 (Homo sapiens, UniProt O96013)
How it was run: as §1

MAP3K11 = MAP3K11 (Homo sapiens, UniProt Q16584)
Chain of MAP3K11 (Q16584 whole entry): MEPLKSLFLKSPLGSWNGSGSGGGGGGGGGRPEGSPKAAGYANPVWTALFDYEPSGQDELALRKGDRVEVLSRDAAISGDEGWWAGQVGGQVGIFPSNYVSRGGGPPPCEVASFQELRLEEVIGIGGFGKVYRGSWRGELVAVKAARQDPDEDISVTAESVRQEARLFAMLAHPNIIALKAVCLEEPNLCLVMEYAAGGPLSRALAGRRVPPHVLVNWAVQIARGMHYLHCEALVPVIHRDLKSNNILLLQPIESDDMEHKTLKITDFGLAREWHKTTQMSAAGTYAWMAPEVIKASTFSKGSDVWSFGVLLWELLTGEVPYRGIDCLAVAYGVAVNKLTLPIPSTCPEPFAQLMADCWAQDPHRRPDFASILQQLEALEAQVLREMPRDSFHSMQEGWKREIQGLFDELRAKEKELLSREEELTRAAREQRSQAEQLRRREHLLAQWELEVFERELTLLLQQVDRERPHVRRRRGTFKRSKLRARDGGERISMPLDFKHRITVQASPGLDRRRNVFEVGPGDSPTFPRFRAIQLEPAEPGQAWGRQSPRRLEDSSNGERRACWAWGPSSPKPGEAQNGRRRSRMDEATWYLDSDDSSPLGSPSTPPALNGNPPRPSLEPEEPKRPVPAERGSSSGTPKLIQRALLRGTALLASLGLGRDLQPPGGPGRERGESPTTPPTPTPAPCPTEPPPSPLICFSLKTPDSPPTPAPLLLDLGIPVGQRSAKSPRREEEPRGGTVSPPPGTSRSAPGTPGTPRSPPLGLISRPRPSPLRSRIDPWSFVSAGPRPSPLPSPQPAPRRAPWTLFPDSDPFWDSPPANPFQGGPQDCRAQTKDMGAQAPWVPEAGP
How it was run: as §1

Chain of PHKG1 (Q16816 whole entry, the tested form may be a part): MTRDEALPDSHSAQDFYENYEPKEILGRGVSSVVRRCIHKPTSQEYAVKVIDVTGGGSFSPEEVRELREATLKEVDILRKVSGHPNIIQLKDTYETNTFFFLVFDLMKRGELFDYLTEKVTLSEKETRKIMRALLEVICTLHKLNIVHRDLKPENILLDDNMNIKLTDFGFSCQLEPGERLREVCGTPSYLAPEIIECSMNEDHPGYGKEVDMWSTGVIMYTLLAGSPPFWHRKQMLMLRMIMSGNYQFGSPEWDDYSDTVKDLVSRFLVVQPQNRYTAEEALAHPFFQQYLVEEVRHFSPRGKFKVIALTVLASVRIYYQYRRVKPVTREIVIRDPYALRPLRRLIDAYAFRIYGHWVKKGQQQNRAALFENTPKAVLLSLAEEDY

inhibition at 1 µM (PHKG1): -3%
inhibition at 1 µM (BRAF(V600E)): -4%
inhibition at 1 µM (MAP3K4): -1%
inhibition at 1 µM (FYN): -2%
inhibition at 1 µM (PAK6): -7%
inhibition at 1 µM (CDK17): 3%
inhibition at 1 µM (PRKACB): 5%
inhibition at 1 µM (MLTK): -3%
inhibition at 1 µM (AKT2): -1%
inhibition at 1 µM (STK17B): 0%
inhibition at 1 µM (STK36): -6%
inhibition at 1 µM (TEC): -7%
inhibition at 1 µM (AAK1): -14%
inhibition at 1 µM (PAK4): 1%
inhibition at 1 µM (MAP3K11): 0%
Compound: C[C@@H](Oc1cc(-c2cnn(C3CCNCC3)c2)cnc1N)c1c(Cl)ccc(F)c1Cl [crizotinib]
